Times observed data for 1 molecule are collected here from US10168342B2, “Lipid probes and uses thereof” (THE SCRIPPS RESEARCH INSTITUTE, priority 2015, dated 2019).

Test in all cases: isoTOP-ABPP mapping of AEA-DA-modified peptides in Neuro2a cells
What all share (type): cell-based

For test [1], the target named is T1, AEA-DA-modified peptides in Neuro2a cells (Mus musculus, UniProt O35737).
T1 construct: endogenous in cells; host or cells: Neuro2a
To be noted: AEA-DA-modified peptide HNRNPH 1 O35737 50-69, SEQ ID NO 49; probe 100 μM, 12 replicates.

Test [2] has as its target T2, AEA-DA-modified peptides in Neuro2a cells (Mus musculus, UniProt O88545).
T2 construct: endogenous in cells; host or cells: Neuro2a
The settings on record: AEA-DA-modified peptide COPS6 O88545 274-295, SEQ ID NO 24; probe 100 μM, 12 replicates.

For test [3], the target named is T3, AEA-DA-modified peptides in Neuro2a cells (Mus musculus, UniProt P42208).
T3 construct: endogenous in cells; host or cells: Neuro2a
T3 sequence (P42208 whole entry): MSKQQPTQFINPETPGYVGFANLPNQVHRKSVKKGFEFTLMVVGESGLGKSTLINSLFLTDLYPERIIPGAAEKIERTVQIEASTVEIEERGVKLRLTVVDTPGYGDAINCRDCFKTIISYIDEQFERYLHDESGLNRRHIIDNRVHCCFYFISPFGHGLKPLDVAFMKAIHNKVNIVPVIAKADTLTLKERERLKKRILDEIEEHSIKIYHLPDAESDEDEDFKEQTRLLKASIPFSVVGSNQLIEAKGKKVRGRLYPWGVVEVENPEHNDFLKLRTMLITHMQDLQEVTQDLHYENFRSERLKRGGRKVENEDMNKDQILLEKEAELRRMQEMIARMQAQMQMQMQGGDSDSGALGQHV
The settings on record: AEA-DA-modified peptide SEPT2 P42208 78-92, SEQ ID NO 98; probe 100 μM, 12 replicates.

Test [4] has as its target T4, AEA-DA-modified peptides in Neuro2a cells (Mus musculus, UniProt P52825).
T4 construct: endogenous in cells; host or cells: Neuro2a
To be noted: AEA-DA-modified peptide CPT2 P52825 363-383, SEQ ID NO 26; probe 100 μM, 12 replicates.

Test [5] deals with T5, AEA-DA-modified peptides in Neuro2a cells (Mus musculus, UniProt P61750).
T5 construct: endogenous in cells; host or cells: Neuro2a
T5 sequence (P61750 whole entry): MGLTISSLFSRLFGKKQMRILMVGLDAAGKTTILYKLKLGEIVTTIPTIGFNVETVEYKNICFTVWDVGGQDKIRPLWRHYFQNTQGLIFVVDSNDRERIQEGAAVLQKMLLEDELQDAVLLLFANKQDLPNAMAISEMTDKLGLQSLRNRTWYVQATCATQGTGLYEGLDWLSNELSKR
To be noted: probe 100 μM, 12 replicates.

In test [6] the target is T6, AEA-DA-modified peptides in Neuro2a cells (Mus musculus, UniProt P70699).
T6 construct: endogenous in cells; host or cells: Neuro2a
T6 sequence (P70699 70-953): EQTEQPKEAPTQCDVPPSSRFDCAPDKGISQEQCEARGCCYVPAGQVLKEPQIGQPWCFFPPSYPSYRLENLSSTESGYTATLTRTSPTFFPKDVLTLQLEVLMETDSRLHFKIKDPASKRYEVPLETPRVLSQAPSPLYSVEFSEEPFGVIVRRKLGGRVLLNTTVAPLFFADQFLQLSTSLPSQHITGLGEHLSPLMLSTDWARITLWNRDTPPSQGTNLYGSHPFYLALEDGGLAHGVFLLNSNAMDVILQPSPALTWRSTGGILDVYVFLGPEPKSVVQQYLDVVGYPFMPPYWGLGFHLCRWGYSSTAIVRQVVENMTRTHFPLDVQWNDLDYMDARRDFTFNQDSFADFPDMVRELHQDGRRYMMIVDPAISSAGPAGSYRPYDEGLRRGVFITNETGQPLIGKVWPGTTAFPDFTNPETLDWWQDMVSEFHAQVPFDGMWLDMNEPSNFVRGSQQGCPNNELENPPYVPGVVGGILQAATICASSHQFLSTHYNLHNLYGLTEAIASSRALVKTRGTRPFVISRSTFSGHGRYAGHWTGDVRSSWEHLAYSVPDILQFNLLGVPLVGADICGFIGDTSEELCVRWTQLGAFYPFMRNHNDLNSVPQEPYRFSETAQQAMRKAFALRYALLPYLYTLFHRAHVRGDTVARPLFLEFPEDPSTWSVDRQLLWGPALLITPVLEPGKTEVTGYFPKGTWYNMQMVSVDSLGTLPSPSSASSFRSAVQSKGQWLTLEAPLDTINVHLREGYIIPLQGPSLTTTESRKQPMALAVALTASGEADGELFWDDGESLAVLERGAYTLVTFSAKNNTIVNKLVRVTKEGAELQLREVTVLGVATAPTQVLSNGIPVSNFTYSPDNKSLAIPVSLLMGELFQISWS
To be noted: AEA-DA-modified peptide GAA P70699 904-935, SEQ ID NO 41; probe 100 μM, 12 replicates.

Test [7] has as its target T7, AEA-DA-modified peptides in Neuro2a cells (Mus musculus, UniProt Q8R127).
T7 construct: endogenous in cells; host or cells: Neuro2a
The settings on record: AEA-DA-modified peptide SCCPDH Q8R127 145-168, SEQ ID NO 96; probe 100 μM, 12 replicates.

Test [8] addresses T8, AEA-DA-modified peptides in Neuro2a cells (Mus musculus, UniProt Q99JB2).
T8 construct: endogenous in cells; host or cells: Neuro2a
To be noted: AEA-DA-modified peptide STOML2 Q99JB2 292-322, SEQ ID NO 107; probe 100 μM, 12 replicates.

For test [9], the target named is T9, AEA-DA-modified peptides in Neuro2a cells (Mus musculus, UniProt Q9D8V0).
T9 construct: endogenous in cells; host or cells: Neuro2a
T9 sequence (Q9D8V0 whole entry): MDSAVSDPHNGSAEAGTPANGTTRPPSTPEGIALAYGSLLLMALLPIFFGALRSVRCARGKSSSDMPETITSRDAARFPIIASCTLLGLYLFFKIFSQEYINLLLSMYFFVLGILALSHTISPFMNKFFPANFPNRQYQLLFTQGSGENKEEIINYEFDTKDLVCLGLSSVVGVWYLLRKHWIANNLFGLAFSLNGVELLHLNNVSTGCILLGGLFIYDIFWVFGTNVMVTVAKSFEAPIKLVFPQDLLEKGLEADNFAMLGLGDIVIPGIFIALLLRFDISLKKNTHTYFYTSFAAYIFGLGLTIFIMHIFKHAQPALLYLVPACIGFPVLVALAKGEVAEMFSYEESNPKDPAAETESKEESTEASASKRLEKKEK
The settings on record: AEA-DA-modified peptide HM13 Q9D8V0 62-74, SEQ ID NO 48; probe 100 μM, 12 replicates.

Test [10] has as its target T10, AEA-DA-modified peptides in Neuro2a cells (Mus musculus, UniProt Q9DBL9).
T10 construct: endogenous in cells; host or cells: Neuro2a
To be noted: AEA-DA-modified peptide ABHD5 Q9DBL9 321-343, SEQ ID NO 2; probe 100 μM, 12 replicates.

Test [11] has as its target T11, AEA-DA-modified peptides in Neuro2a cells (Mus musculus, UniProt Q9Z2R6).
T11 construct: endogenous in cells; host or cells: Neuro2a
To be noted: AEA-DA-modified peptide UNC119 Q9Z2R6 131-140, SEQ ID NO 117; probe 100 μM, 12 replicates.

The target in test [12] is T12, AEA-DA-modified peptides in Neuro2a cells (Mus musculus, UniProt Q9Z2Z6).
T12 construct: endogenous in cells; host or cells: Neuro2a
T12 sequence (Q9Z2Z6 whole entry): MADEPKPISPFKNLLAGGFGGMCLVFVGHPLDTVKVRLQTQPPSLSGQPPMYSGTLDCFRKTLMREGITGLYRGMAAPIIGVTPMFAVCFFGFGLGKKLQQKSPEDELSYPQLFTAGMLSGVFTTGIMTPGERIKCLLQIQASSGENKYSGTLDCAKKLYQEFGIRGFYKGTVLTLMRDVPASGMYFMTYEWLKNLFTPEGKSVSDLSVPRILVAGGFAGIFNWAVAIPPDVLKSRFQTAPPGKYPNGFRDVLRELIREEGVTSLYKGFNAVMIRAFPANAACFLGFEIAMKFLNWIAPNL
To be noted: AEA-DA-modified peptide SLC25A20 Q9Z2Z6 179-195, SEQ ID NO 103; probe 100 μM, 12 replicates.

T8 sequence (Q99JB2 29-353): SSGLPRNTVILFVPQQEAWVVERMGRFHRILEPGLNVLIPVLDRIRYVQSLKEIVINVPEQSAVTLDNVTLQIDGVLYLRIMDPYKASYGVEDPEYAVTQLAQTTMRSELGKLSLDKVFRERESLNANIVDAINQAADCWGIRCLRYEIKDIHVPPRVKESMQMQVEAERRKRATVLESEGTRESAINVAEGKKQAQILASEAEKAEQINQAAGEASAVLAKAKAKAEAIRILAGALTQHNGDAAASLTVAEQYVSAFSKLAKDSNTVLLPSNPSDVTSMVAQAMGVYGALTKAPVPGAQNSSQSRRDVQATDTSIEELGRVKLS
T1 sequence (O35737 whole entry): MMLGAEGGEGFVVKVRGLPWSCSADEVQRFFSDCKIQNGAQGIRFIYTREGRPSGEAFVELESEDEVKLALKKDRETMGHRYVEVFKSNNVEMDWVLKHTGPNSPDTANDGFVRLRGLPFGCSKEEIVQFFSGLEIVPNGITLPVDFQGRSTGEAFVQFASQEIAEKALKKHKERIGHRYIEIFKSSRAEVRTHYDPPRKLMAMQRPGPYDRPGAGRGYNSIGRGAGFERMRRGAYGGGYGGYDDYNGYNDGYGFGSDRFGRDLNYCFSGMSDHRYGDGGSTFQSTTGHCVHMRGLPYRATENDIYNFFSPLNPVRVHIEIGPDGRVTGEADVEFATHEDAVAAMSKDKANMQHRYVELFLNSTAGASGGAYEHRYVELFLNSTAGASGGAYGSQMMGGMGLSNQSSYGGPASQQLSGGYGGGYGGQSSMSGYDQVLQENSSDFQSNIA
T4 sequence (P52825 26-658): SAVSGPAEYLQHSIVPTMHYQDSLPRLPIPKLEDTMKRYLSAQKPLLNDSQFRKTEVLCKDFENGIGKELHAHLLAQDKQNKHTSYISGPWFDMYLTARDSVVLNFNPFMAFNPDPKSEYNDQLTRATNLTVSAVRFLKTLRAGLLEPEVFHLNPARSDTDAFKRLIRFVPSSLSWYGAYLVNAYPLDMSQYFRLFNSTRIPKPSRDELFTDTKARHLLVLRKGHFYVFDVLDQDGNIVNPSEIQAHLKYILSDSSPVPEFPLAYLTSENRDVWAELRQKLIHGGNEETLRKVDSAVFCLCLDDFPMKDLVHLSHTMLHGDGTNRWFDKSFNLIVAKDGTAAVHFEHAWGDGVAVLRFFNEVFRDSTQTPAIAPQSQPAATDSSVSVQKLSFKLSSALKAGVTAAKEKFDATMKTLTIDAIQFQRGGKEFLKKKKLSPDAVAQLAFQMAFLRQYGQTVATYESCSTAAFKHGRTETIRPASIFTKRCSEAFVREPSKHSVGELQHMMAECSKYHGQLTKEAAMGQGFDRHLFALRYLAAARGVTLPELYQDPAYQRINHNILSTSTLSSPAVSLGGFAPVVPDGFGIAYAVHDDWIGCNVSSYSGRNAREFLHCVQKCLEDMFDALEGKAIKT
T2 sequence (O88545 whole entry): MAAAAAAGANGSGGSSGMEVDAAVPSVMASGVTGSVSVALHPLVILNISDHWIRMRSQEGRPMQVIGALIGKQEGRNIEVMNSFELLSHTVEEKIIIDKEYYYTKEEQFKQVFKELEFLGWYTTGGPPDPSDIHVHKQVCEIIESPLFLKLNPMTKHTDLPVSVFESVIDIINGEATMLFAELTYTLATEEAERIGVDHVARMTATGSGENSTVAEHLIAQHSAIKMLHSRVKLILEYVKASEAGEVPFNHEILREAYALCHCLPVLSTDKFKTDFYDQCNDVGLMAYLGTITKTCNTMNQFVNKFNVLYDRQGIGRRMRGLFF
T7 sequence (Q8R127 whole entry): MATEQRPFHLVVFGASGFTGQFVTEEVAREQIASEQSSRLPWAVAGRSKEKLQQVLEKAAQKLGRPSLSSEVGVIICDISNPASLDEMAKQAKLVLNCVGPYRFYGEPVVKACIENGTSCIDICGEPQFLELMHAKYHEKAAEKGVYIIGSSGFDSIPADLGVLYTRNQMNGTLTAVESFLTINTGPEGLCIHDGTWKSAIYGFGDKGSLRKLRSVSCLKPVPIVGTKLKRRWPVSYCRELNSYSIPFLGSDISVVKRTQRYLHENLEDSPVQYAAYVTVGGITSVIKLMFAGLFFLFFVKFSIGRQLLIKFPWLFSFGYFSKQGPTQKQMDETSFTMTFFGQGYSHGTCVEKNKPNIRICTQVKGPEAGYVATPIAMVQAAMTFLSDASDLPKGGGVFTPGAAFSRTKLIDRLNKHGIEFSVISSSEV
T10 sequence (Q9DBL9 whole entry): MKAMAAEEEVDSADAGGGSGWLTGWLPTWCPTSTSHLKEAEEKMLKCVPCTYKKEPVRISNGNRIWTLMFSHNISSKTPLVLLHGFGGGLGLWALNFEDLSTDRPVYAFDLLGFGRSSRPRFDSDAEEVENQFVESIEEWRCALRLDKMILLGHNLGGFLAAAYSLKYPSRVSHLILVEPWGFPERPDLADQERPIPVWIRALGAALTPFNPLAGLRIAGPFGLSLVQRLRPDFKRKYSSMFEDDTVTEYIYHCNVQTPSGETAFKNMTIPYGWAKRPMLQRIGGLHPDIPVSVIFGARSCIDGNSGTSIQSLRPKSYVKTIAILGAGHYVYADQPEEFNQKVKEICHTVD

As to `C#CCCCC1(CC/C=C\C/C=C\C/C=C\CCCC(=O)NCCO)N=N1` [AEA-DA, (5Z,8Z,11Z)-N-(2-hydroxyethyl)-14-(3-(pent-4-yn-1-yl)-3H-diazirin-3-yl)tetradeca-5,8,11-trienamide], the Times observed came out at 9 in [1]; 8 in test [2]; 2 in [3]; 6 in test [4]; 9 in test [5] (AEA-DA-modified peptide ARF4 P61750 39-60, SEQ ID NO 13); 2 in test [5] (AEA-DA-modified peptide ARF4 P61750 110-128, SEQ ID NO 12). Further, the Times observed in test [6] was 11; in test [7], 11; in [8] it was 2; in [9], 12; in [10] it was 6; in test [11], 3. In test [12], this molecule showed a Times observed of 4.
